Here are results for four molecules from patent US20250326753A1, “DUAL CXCR4-BTK INHIBITORS” (X4 Pharmaceuticals, Inc., priority 2022, published 2025).

Type in all cases: biochemical
One test addresses T1, ITK (Homo sapiens, UniProt Q08881).
T1 construct: purchased Reaction Biology Europe GmbH
T1 sequence (Q08881 1-620): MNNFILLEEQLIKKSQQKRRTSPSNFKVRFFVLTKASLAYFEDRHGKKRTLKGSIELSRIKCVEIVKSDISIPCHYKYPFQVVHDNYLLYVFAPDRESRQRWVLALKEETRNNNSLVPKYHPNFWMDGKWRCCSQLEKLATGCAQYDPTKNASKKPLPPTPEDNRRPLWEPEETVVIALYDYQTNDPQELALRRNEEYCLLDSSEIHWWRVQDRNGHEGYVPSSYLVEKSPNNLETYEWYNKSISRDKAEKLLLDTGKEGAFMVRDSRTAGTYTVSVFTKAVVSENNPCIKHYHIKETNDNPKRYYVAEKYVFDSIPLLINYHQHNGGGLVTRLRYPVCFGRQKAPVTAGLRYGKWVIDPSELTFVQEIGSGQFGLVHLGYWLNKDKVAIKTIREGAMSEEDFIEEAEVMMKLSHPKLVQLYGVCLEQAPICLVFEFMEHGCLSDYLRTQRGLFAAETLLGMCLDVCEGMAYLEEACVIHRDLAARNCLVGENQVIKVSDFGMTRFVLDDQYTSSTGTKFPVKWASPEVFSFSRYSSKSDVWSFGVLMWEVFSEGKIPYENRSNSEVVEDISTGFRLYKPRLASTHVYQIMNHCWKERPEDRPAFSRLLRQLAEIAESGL
Nature of the test: PanQinase kinase panel: ITK. The following applies: read-out: INHIBITORY EFFECT @ 1 uM: ITK. The protocol: (§1) Screening procedures were performed in accordance with the company's on-line protocol [accessed on-line Mar.
(§2) For each kinase, the median value of the cpm of three wells was defined as “low control” (n=3). This value reflects unspecific binding of radioactivity to the plate in the absence of a protein kinase but in the presence of the substrate. Additionally, for each kinase the median value of the cpm of three other wells was taken as the “high control,” i.e. full activity in the absence of any inhibitor (n=3). The difference between high and low control of each enzyme was taken as 100% activity.
(§3) As part of the data evaluation the low control of each kinase was subtracted from the high control value as well as from their corresponding “compound values”. The residual activity (in %) for each compound well was calculated by using the following formula: Res. Activity (%)=100×[(signal of compound−low control)/(high control−low control)].

Another test addresses T2, FGR (Homo sapiens, UniProt P09769).
T2 construct: purchased Reaction Biology Europe GmbH
Nature of the test: PanQinase kinase panel: FGR. The following applies: read-out: INHIBITORY EFFECT @ 1 uM: FGR. The protocol: as §1, §2
As part of the data evaluation the low control of each kinase was subtracted from the high control value as well as from their corresponding “compound values”.

The target of another test is T3, PDGFRalpha (Homo sapiens, UniProt P16234).
T3 construct: purchased Reaction Biology Europe GmbH
T3 sequence (P16234 24-1089): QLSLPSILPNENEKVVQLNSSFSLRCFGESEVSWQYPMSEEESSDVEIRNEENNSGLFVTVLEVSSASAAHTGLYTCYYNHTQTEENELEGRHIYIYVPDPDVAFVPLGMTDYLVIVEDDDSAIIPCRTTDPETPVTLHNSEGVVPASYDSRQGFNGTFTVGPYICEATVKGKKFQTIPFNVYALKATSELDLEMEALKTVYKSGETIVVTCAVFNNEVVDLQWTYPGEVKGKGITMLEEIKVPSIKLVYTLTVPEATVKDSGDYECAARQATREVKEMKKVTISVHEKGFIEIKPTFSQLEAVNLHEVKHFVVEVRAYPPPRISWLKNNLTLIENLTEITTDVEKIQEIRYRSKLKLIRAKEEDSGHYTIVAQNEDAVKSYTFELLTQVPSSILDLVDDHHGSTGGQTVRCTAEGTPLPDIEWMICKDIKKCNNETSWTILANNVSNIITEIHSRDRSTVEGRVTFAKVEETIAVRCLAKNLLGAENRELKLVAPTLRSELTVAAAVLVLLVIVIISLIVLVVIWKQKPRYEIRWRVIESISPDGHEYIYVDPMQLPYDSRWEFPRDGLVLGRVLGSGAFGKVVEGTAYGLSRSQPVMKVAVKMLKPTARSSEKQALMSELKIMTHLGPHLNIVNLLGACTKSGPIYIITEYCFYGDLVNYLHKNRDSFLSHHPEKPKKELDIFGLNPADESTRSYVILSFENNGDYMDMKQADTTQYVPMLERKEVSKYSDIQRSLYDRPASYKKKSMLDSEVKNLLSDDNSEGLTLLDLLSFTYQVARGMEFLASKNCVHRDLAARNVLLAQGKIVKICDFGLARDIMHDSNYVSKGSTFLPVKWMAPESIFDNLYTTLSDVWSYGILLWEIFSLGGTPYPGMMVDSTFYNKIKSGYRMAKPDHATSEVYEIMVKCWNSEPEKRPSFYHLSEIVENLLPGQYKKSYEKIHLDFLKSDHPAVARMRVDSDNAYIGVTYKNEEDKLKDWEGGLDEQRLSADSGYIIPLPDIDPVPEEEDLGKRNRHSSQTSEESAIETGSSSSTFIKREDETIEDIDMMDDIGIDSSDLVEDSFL
The experiment in a line: PanQinase kinase panel: PDGFRalpha. The following applies: read-out: INHIBITORY EFFECT @ 1 uM: PDGFRalpha. The protocol:
as §1, §2, §3

Another test concerns the target T4, LCK (Homo sapiens, UniProt P06239).
T4 construct: purchased Reaction Biology Europe GmbH
The experiment in a line: PanQinase kinase panel: LCK. The following applies: read-out: INHIBITORY EFFECT @ 1 uM: LCK. The protocol:
as §1, §2, §3

The target of a further test is T5, AuroraA (Homo sapiens, UniProt O14965).
T5 construct: purchased Reaction Biology Europe GmbH
T5 sequence (O14965 1-403): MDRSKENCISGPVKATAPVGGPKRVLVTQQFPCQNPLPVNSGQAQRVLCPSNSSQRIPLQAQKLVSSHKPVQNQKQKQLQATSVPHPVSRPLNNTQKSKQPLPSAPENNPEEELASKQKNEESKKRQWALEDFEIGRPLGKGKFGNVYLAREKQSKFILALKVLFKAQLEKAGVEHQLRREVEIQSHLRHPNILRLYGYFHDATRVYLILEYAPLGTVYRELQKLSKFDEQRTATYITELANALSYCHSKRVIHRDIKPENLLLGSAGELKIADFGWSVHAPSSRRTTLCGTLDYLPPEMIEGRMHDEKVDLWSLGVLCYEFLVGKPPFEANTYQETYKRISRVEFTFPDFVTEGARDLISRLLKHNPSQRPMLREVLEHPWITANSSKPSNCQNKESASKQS
The experiment in a line: PanQinase kinase panel: AuroraA. As to the method: as §1, §2, §3

Another test has as its target T6, RIPK5 (Homo sapiens, UniProt Q6XUX3).
T6 construct: purchased Reaction Biology Europe GmbH
T6 sequence (Q6XUX3 1-929): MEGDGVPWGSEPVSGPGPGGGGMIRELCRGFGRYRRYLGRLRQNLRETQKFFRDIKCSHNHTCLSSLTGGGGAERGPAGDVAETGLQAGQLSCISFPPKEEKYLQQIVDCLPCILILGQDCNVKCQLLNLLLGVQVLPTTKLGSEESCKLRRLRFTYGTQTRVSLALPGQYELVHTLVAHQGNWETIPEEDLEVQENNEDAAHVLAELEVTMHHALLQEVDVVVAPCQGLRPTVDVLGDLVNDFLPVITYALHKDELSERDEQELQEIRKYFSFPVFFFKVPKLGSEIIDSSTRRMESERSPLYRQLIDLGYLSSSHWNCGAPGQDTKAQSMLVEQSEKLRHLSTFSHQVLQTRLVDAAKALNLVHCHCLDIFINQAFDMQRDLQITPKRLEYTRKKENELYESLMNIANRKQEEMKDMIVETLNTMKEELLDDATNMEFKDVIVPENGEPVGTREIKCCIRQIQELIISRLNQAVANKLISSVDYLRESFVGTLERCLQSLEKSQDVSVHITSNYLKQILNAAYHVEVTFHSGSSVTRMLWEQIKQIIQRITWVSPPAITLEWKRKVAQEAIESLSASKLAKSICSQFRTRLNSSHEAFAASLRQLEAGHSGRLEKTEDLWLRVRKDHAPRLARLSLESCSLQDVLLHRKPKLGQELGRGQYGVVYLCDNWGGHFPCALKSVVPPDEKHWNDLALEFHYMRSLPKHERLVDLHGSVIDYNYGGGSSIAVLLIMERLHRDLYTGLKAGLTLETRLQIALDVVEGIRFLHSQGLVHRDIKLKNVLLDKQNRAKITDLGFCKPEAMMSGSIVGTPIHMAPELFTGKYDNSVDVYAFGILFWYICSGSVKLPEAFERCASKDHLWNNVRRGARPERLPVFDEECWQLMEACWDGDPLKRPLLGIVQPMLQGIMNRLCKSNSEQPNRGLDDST
Nature of the test: PanQinase kinase panel: RIPK5. The following applies: read-out: INHIBITORY EFFECT @ 1 uM: RIPK5. As to the method: as §1, §2, §3

In another test the target is T7, LIMK2 (Homo sapiens, UniProt P53671).
T7 construct: purchased Reaction Biology Europe GmbH
T7 sequence (P53671 whole entry): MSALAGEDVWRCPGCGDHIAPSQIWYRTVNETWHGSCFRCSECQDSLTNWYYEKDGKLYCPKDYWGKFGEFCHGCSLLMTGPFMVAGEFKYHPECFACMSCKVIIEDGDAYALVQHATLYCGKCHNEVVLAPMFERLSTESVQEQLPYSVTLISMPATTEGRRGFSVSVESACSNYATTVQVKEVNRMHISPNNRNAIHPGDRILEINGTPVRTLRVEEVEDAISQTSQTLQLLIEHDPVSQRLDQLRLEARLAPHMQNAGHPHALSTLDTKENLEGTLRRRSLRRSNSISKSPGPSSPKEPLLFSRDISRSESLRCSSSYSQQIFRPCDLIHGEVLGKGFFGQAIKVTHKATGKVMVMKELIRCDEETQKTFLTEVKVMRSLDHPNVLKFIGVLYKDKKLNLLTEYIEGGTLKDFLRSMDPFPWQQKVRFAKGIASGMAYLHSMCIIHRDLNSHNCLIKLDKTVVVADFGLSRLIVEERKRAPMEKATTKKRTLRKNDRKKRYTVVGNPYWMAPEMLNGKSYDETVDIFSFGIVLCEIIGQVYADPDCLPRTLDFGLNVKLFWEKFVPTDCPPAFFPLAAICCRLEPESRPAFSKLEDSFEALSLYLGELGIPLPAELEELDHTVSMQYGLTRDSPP
Nature of the test: PanQinase kinase panel: LIMK2. The protocol: as §1, §2, §3

Setting [1] is: at 1 μM, read-out: inhibition of AuroraA.
[2] abbreviates: read-out: INHIBITORY EFFECT @ 1 uM: AuroraA.
Where [3] appears, read: read-out: INHIBITORY EFFECT @ 1 uM: LIMK2.

Where two headings read alike, the source gives them in different places.

T2 sequence (P09769 whole entry): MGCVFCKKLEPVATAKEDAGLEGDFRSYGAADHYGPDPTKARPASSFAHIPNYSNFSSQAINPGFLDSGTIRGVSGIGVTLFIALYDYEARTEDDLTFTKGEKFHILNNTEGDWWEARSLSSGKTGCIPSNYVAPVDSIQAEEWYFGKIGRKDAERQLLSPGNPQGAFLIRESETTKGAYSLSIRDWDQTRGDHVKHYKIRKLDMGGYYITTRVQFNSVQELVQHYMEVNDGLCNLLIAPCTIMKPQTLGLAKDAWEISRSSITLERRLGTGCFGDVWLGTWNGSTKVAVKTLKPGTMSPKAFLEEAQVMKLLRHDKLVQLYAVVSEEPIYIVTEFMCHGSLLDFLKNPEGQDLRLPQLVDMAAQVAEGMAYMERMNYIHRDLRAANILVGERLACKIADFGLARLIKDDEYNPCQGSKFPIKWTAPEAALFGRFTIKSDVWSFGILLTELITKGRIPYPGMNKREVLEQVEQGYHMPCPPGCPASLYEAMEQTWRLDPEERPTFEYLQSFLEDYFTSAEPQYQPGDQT
T4 sequence (P06239 whole entry): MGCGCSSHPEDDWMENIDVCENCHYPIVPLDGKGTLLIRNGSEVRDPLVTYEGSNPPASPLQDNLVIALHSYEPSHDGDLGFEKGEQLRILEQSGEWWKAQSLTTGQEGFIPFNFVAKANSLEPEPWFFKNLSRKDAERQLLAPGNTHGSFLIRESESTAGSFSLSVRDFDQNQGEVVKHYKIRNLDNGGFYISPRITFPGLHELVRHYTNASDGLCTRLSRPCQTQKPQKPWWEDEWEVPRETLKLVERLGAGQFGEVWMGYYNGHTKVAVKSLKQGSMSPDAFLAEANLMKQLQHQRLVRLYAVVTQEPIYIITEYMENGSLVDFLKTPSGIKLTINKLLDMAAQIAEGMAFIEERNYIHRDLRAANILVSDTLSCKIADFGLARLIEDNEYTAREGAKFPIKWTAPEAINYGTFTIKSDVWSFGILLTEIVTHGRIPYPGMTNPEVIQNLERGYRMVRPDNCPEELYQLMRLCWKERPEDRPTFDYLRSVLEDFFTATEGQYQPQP

`O=C(c1ccc(Oc2ccccc2)cc1Cl)c1c[nH]c2ncnc(N[C@@H]3CC[C@@H](CO)OC3)c12` [ARQ-531, (2-chloro-4-phenoxyphenyl) (4-(((3R,6S)-6-(hydroxymethyl)tetrahydro-2H-pyran-3-yl)amino)-7H-pyrrolo[2,3-d]pyrimidin-5-yl) methanone]: the inhibition at 1 µM at ITK is 50 to 69%; on FGR it was 70 to 89%; on PDGFRalpha, 70 to 89%; at LCK it was 90 to 100%; at AuroraA (setting [1]), no less than 50%; on AuroraA (setting [2]), 50 to 69%. Besides, the inhibition at 1 µM on RIPK5 is 70 to 89%.
For the molecule `Cc1cccnc1[C@H]1CCC[C@@H](c2ncccc2C)N1CCN1CCN(C(=O)c2ccc(-c3cc4c(-c5cccc(NC(=O)c6ccccc6)c5C)ncnc4[nH]3)cc2)CC1` [Compound I-10, N-(3-(6-(4-(4-(2-((2R,6S)-2,6-bis(3-methylpyridin-2-yl)piperidin-1-yl)ethyl)piperazine-1-carbonyl)phenyl)-7H-pyrrolo[2,3-d]pyrimidin-4-yl)-2-methylphenyl)benzamide], the inhibition at 1 µM on ITK was less than 50%; at FGR, less than 50%; at PDGFRalpha, less than 50%; at LCK, less than 50%; at AuroraA (setting [1]) it was 50 to 89%; at AuroraA (setting [2]), 50 to 69%. Moreover, the inhibition at 1 µM on LIMK2 (at 1 μM, read-out: inhibition of LIMK2) was 50 to 89%; at LIMK2 (setting [3]), 50 to 69%; on RIPK5, less than 50%.
Turning to `COc1ccc(F)cc1C(=O)NCc1ccc(-c2nn([C@@H](C)C(F)(F)F)c(N)c2C(N)=O)cc1` [LOXO-305, pirtobrutinib], the inhibition at 1 µM on ITK, on FGR, on PDGFRalpha, on LCK, on AuroraA (setting [2]) and at LIMK2 (setting [3]) was less than 50% throughout. The inhibition at 1 µM on RIPK5 was less than 50%.
Regarding `C=CC(=O)N1CCC([C@@H]2CCNc3c(C(N)=O)c(-c4ccc(Oc5ccccc5)cc4)nn32)CC1` [Zanubrutinib, (7S)-2-(4-phenoxyphenyl)-7-(1-prop-2-enoylpiperidin-4-yl)-4,5,6,7-tetrahydropyrazolo[1,5-a]pyrimidine-3-carboxamide], the inhibition at 1 µM on ITK, at FGR, on PDGFRalpha, at LCK, on AuroraA (setting [2]) and on LIMK2 (setting [3]) was less than 50% throughout. Besides, the inhibition at 1 µM at RIPK5 was less than 50%.
